# Literature values, collected in patent publication US20140031310A1, “PHARMACEUTICAL COMPOSITIONS AND METHODS FOR MAKING AND USING THEM” (priority 2011, published 2014).
# Assays:
# [1] = in vivo
# [2] = in vivo; remark: listed apart in the source
pharmacokinetic half-life [1] [h],Compound,leads to HFSR / skin toxicity [2]
20 to 24,CNC(=O)c1cc(Oc2ccc(NC(=O)Nc3ccc(Cl)c(C(F)(F)F)c3)cc2)ccn1 [sorafenib],
,bevacizumab: anti-VEGF mAb,"Neither anti-VEGF mAbs (bevacizumab) nor PDGF-R inhibitors (e.g., imatinib) lead to HFSR"
